Results published in patent publication US12458643B2, “Antidepressant/anxiolytic drug in which PAC1 receptor antagonist is used” (KAGOSHIMA UNIVERSITY, priority 2020, dated 2025).

Columns and labels:
[1] = system: chronic social defeat stress mice; assay: Chronic social defeat stress, social preference or avoidance test (SPAT); type: in vivo, mouse; conditions: for effect on chronic social defeat stress-induced social behavioral abnormality (SPAT): 30 mg/kg i.p. once daily for 7 consecutive days, SPAT 30 min after final administration (Day 18); for sustained effect on social behavioral abnormality (social interaction ratio) / effect on social behavioral abnormality (social interaction ratio): Example 18; for sustained effect on social behavioral abnormality (social interaction ratio): 7, 14, 28 days after single i.p. dose (PA-915 30 mg/kg, ketamine 20 mg/kg), fluoxetine 20 mg/kg i.p. 14-day consecutive administration; for effect on social behavioral abnormality (social interaction ratio): single i.p. dose (PA-915 30 mg/kg, ketamine 20 mg/kg, fluoxetine 20 mg/kg), 60 minutes later (Day 12)
Text: When male C57BL/6N mice (8 to 12 weeks old) are allowed to coexist with ICR mice having a large physical size, the male C57BL/6N mice run about in the beginning in order to avoid attack by the ICR mice, but eventually make a posture to immediately raise their forelegs and accept defeats (obedience) by repeated load for 5 days to 10 days (chronic social defeat stress (SDS) load).
The social preference or avoidance test (SPAT) is a test that has received attention in recent years as a highly extrapolatable antidepressant drug screening system. SPAT evaluates the degree of interest in others (sociality). A box (which has a wired contact surface) is disposed in an open field. A time of contact with a target (time spent in an interaction zone) and a time spent in an avoidance zone are measured without the target (ICR mice) placed in the box in the first run and with the target (ICR mice) placed in the box in the second run. Time spent in the second run/Time spent in the first run is calculated (social interaction ratio). The social interaction ratio is decreased in chronic social defeat stress mice. Stress susceptibility differs among individuals, and susceptible individuals (social interaction ratio <1) and resilient individuals (social interaction ratio 1) are found.
(§1) Chronic social defeat stress was applied at 10 min/day for 10 days (Days 1 to 10) to male C57BL/6N mice (8 to 12 weeks old) each reared in isolation for 10 days or longer. On Day 11, the social preference or avoidance test (SPAT) was conducted, and susceptible mice were selected. A vehicle (10% DMSO solution; dissolved in saline; n=12) or PA-8 (30 mg/kg; n=9) was intraperitoneally administered once daily (0.1 mL/10 g) for 7 consecutive days from day 12. SPAT was conducted for 150 seconds 30 minutes after the final administration on the 7th day (Day 18). Mice reared for 10 days in a home cage without chronic social defeat stress load were used as a control (n=12). The results are shown in FIG. 15 (A: social interaction ratio, B: time spent in the interaction zone, C: time spent in the avoidance zone). The data was indicated by mean±standard error. *P<0.05 (One-way ANOVA followed by Tukey-Kramer test).
as §1, with “or PA-9” for “or PA-8”, “FIG. 17” for “FIG. 15”, “zone). […]” for “zone).”
Chronic social defeat stress was applied at 10 min/day for 10 days (Days 1 to 10) to male C57BL/6N mice (8 to 12 weeks old) each reared in isolation for 10 days or longer. On Day 11, the social preference or avoidance test (SPAT) was conducted, and susceptible mice were selected. On the next day (Day 12), a vehicle (10% DMSO solution; dissolved in saline; n=17) or PA-915 (30 mg/kg; n=17) was intraperitoneally administered (0.1 mL/10 g) to the mice. SPAT was conducted for 150 seconds 60 minutes later. Mice reared for 10 days in a home cage without chronic social defeat stress load were used as a control (n=22). The results are shown in FIG. 19 (A: social interaction ratio, B: time spent in the interaction zone, C: time spent in the avoidance zone). […] The data was indicated by mean±standard error. **P<0.01; *P<0.05 (One-way ANOVA followed by Tukey-Kramer test). […]

[2] = system: single-restraint stress mice; assay: Single-restraint stress-induced anxiety-like behavior, light-dark test; type: in vivo, mouse; conditions: 30 mg/kg i.p. 30 min before 30 min restraint; 10 min test
Description: Male C57BL/6J mice (8 to 12 weeks old) were acclimatized to a laboratory (illuminance: 330 lx) for 60 minutes. Then, a vehicle (10% DMSO solution; dissolved in saline; n=9), PA-8 (30 mg/kg; n=9) or PA-81004 (30 mg/kg; n=10) was intraperitoneally administered thereto (0.1 mL/10 g). After a lapse of 30 minutes after administration, restraint stress (stress caused by holding the mice in tubes of 2.8 cm in diameter with a hole for breathing) was applied thereto for 30 minutes. The light-dark test (10 min) was conducted from immediately after the completion of restraint. Mice that freely behaved in a home cage for 30 minutes without being held and without accessing water and food were used as a control (n=12). The results are shown in FIG. 10 (A: time spent in the light box, B: the number of transitions between the light and dark boxes; light box illuminance: 330 lx). The data was indicated by mean±standard error. **P<0.01, *P<0.05 (One-way ANOVA followed by Tukey-Kramer test). […] Male C57BL/6J mice (8 to 12 weeks old) were acclimatized to a laboratory (illuminance: 330 lx) for 60 minutes. Then, a vehicle (10% DMSO solution; dissolved in saline; n=11), PA-9 (30 mg/kg; n=8) or PA-915 (30 mg/kg; n=9) was intraperitoneally administered thereto (0.1 mL/10 g). After a lapse of 30 minutes after administration, restraint stress (stress caused by holding the mice in tubes of 2.8 cm in diameter with a hole for breathing) was applied thereto for 30 minutes. The light-dark test (10 min) was conducted from immediately after the completion of restraint. Mice that freely behaved in a home cage for 30 minutes without being held and without accessing water and food were used as a control (n=11). The results are shown in FIG. 12 (A: time spent in the light box, B: the number of transitions between the light and dark boxes; light box illuminance: 330 lx). The data was indicated by mean±standard error. **P<0.01, *P<0.05 (One-way ANOVA followed by Tukey-Kramer test).

SMILES | effect on chronic social defeat stress-induced social behavioral abnormality (SPAT) [1] | effect on single-restraint stress-induced anxiety-like behavior (light-dark test) [2] | sustained effect on social behavioral abnormality (social interaction ratio) [1] | effect on social behavioral abnormality (social interaction ratio) [1]
C=CCOc1ccc(C2CC(=O)Nc3nc(N)[nH]c(=O)c32)cc1OC (stereo not drawn) [PA-8] | improving effect | improving effects |  | 
O=C(NCCc1c[nH]cn1)C1CC(=O)N(c2n[nH]c3ccccc23)C1 (stereo not drawn) [PA-9] | tended to improve social behavioral abnormality | improving effects |  | 
Nc1nc2c(c(=O)[nH]1)C(c1cccc(OC(F)(F)F)c1)CC(=O)N2 (stereo not drawn) [PA-81004, 2-Amino-5-(3-trifluoromethoxyphenyl)-5,8-dihydro-3H,6H-pyrido[2,3-d]pyrimidine-4,7-dione] |  | improving effects |  | 
CNCCC(Oc1ccc(C(F)(F)F)cc1)c1ccccc1 (stereo not drawn) [fluoxetine] |  |  | neither the single-dose administration nor 14-day consecutive administration of fluoxetine improved social behavioral abnormality | neither the single-dose administration nor 14-day consecutive administration of fluoxetine improved social behavioral abnormality
CNC1(c2ccccc2Cl)CCCCC1=O (stereo not drawn) [ketamine] |  |  | maintained its effectiveness 7, 14, and 28 days later | improved social behavioral abnormality
